ChEMBL document CHEMBL4800732, “Data for DCP probe TP-040” (2021)

Tests used:
[1] = biological target: Alpha-2A adrenergic receptor (Homo sapiens) (UniProt P08913); conditions: Compound concentration 10.0 uM
[2] = biological target: Histamine H1 receptor (Homo sapiens) (UniProt P35367); conditions: Compound concentration 10.0 uM
[3] = biological target: T1, Alpha-2C adrenergic receptor (Homo sapiens, UniProt P18825); assay: GPCRScan assay: inhibition of Alpha2C; set-up: radioligand conc. used [nm] 0.5 – 1.0, parental cells stable MDCK
T1 sequence (P18825 whole entry): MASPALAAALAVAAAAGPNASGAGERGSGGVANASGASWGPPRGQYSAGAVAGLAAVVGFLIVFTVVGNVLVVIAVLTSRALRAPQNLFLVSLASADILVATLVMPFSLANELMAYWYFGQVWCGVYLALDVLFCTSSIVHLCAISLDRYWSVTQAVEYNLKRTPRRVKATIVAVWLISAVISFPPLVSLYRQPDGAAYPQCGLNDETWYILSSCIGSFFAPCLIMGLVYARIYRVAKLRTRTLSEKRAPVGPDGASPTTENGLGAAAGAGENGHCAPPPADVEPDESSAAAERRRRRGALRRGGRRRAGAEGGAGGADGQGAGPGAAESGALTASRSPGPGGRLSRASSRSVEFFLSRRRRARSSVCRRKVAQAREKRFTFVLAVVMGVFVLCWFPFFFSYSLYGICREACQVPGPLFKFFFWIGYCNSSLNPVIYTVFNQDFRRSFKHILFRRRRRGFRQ

[4] = biological target: Alpha-2B adrenergic receptor (Homo sapiens) (UniProt P18089); conditions: Compound concentration 10.0 uM
Histamine H3 receptor = Histamine H3 receptor (Homo sapiens, UniProt Q9Y5N1); conditions: Compound concentration 10.0 uM
Histamine H3 receptor, sequence (Q9Y5N1 whole entry): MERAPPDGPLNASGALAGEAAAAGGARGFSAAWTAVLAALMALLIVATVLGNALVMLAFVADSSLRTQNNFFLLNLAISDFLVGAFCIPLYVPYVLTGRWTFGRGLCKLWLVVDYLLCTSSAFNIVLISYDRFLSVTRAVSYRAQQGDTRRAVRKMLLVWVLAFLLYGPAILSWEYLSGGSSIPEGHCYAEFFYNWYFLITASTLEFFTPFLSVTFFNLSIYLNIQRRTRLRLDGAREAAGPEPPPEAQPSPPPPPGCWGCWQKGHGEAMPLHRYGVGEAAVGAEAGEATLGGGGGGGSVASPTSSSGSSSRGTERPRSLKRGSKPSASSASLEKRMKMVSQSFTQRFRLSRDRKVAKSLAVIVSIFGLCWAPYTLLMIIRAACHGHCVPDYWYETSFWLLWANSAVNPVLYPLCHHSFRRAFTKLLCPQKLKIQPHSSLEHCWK

[5] = biological target: Muscarinic acetylcholine receptor M1 (Homo sapiens) (UniProt P11229); conditions: Compound concentration 10.0 uM
Muscarinic acetylcholine receptor M1 (Homo sapiens), sequence (P11229 whole entry): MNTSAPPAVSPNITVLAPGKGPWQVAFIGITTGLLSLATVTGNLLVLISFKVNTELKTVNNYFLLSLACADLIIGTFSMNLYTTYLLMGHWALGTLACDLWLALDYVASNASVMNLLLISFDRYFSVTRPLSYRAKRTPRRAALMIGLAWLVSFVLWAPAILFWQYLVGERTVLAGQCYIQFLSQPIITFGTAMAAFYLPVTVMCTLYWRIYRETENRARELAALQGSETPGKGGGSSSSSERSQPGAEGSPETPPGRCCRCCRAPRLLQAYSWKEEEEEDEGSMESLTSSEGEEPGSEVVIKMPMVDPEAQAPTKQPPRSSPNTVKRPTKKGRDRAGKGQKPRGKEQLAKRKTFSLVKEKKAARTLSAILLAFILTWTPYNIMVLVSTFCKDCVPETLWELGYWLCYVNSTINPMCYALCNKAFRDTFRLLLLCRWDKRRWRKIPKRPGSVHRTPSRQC

[6] = biological target: Beta-1 adrenergic receptor (Homo sapiens) (UniProt P08588); conditions: Compound concentration 10.0 uM
Beta-1 adrenergic receptor (Homo sapiens), sequence (P08588 whole entry, looked up): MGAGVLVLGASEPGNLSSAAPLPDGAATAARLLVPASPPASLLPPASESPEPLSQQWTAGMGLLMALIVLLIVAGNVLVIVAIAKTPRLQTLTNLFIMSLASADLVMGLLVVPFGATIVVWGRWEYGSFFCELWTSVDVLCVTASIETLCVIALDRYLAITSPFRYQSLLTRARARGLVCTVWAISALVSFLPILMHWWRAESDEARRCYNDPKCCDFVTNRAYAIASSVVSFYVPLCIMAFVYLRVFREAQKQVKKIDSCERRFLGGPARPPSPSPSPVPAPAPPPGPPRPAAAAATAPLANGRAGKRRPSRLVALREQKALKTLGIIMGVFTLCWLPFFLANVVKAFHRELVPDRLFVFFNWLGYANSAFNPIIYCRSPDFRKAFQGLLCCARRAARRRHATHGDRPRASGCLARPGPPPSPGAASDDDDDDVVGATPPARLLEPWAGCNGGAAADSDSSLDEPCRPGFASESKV

[7] = biological target: Delta-type opioid receptor (Homo sapiens) (UniProt P41143); conditions: Compound concentration 10.0 uM
Delta-type opioid receptor (Homo sapiens), sequence (P41143 whole entry): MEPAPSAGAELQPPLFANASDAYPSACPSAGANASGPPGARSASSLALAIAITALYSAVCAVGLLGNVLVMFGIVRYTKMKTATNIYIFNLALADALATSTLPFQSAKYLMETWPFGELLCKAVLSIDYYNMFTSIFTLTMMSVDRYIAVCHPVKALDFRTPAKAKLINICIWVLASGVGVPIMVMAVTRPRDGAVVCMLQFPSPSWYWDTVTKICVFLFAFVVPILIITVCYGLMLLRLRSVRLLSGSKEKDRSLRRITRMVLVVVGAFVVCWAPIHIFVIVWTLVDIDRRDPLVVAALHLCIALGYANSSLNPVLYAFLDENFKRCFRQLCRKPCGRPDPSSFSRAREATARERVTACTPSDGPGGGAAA

[8] = biological target: T2, Sodium-dependent noradrenaline transporter (Homo sapiens, UniProt P23975); assay: GPCRScan assay: inhibition of NET; set-up: radioligand conc. used [nm] 1.3 – 5.0, parental cells stable HEK
T2 sequence (P23975 whole entry): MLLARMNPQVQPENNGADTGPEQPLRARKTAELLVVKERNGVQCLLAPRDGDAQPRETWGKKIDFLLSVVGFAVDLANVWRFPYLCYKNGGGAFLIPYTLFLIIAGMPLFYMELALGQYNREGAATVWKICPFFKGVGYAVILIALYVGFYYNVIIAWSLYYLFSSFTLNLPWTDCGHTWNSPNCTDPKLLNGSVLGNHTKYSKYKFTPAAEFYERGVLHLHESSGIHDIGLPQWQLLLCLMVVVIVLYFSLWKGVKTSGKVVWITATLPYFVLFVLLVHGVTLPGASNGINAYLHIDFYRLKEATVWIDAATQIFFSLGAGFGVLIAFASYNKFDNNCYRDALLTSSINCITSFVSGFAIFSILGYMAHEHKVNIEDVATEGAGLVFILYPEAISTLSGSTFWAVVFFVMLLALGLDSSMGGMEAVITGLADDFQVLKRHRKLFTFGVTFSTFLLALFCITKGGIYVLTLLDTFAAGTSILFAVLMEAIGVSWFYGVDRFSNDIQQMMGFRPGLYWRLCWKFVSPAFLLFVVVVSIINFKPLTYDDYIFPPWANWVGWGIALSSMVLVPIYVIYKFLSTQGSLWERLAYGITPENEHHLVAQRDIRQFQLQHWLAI

[9] = biological target: 5-hydroxytryptamine receptor 1E (Homo sapiens) (UniProt P28566); conditions: Compound concentration 10.0 uM
5-hydroxytryptamine receptor 1E (Homo sapiens), sequence (P28566 whole entry): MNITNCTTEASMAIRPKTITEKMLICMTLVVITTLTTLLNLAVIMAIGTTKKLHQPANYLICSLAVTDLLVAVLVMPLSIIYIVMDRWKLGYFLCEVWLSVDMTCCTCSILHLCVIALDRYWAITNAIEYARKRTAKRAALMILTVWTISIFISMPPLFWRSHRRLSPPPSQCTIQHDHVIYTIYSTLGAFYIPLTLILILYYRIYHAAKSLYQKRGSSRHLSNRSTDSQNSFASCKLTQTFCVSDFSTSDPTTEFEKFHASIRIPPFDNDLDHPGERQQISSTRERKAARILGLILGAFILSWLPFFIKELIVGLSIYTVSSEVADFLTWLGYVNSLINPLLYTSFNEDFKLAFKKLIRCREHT

[10] = biological target: 5-hydroxytryptamine receptor 2C (Homo sapiens) (UniProt P28335); conditions: Compound concentration 10.0 uM
[11] = biological target: 5-hydroxytryptamine receptor 5A (Homo sapiens, UniProt P47898); conditions: Compound concentration 10.0 uM
5-hydroxytryptamine receptor 5A, sequence (P47898 whole entry): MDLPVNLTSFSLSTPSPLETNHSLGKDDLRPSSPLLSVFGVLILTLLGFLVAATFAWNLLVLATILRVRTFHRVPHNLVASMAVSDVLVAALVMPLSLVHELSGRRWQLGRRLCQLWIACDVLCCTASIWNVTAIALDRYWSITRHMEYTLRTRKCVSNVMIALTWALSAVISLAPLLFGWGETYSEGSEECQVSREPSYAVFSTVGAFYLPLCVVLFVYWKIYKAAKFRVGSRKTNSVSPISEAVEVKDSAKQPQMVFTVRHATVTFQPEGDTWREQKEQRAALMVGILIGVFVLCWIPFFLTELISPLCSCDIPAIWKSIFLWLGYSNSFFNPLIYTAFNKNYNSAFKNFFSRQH

[12] = biological target: 5-hydroxytryptamine receptor 1D (Homo sapiens, UniProt P28221); conditions: Compound concentration 10.0 uM
5-hydroxytryptamine receptor 1D, sequence (P28221 whole entry): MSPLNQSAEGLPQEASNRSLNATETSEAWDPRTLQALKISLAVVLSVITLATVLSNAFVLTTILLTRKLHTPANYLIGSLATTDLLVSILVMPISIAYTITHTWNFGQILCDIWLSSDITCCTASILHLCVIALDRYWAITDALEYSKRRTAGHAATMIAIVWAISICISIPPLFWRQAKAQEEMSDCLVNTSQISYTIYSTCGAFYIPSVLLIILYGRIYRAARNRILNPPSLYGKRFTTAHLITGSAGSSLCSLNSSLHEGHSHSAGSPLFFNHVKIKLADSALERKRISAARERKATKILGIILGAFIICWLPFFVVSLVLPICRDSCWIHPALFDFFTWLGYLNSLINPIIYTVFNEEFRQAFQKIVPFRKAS

[13] = biological target: T3, 5-hydroxytryptamine receptor 2C (Homo sapiens, UniProt P28335); assay: GPCRScan assay: inhibition of 5-HT2C; set-up: radioligand conc. used [nm] 1.0 – 2.5, parental cells HEK T
T3 sequence (P28335 whole entry): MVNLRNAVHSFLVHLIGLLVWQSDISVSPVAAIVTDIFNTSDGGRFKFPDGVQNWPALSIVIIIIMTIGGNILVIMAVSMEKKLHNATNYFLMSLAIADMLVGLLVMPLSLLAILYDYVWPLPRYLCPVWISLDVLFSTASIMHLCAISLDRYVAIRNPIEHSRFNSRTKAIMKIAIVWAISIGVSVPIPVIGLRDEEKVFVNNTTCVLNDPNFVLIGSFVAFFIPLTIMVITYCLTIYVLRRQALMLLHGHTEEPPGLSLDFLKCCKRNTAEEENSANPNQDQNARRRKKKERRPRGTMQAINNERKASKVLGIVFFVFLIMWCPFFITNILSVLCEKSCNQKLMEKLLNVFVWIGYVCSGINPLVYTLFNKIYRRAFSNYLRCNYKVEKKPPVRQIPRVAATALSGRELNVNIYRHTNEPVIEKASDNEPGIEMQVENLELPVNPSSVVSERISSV

[14] = biological target: Muscarinic acetylcholine receptor M5 (Homo sapiens) (UniProt P08912); conditions: Compound concentration 10.0 uM
[15] = biological target: T4, Alpha-2B adrenergic receptor (Homo sapiens, UniProt P18089); assay: GPCRScan assay: inhibition of Alpha2B; set-up: radioligand conc. used [nm] 1.5 – 2.0, parental cells HEKT
T4 sequence (P18089 whole entry): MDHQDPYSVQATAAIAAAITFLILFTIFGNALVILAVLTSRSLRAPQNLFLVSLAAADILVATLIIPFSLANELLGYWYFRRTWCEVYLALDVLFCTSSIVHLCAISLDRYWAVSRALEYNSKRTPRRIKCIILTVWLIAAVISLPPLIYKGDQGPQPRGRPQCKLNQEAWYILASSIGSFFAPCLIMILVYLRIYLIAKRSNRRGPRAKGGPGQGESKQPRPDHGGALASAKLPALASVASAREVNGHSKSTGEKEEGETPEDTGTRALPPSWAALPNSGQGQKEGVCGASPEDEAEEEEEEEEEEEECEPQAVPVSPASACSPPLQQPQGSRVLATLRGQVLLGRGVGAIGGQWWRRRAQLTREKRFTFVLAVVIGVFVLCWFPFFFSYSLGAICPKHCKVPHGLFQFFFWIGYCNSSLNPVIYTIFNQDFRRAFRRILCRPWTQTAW

[16] = biological target: 5-hydroxytryptamine receptor 2B (Homo sapiens, UniProt P41595); assay: GPCRScan assay: inhibition of 5-HT2B; set-up: radioligand conc. used [nm] 1.0 – 2.0, parental cells stable HEK
5-hydroxytryptamine receptor 2B, sequence (P41595 whole entry): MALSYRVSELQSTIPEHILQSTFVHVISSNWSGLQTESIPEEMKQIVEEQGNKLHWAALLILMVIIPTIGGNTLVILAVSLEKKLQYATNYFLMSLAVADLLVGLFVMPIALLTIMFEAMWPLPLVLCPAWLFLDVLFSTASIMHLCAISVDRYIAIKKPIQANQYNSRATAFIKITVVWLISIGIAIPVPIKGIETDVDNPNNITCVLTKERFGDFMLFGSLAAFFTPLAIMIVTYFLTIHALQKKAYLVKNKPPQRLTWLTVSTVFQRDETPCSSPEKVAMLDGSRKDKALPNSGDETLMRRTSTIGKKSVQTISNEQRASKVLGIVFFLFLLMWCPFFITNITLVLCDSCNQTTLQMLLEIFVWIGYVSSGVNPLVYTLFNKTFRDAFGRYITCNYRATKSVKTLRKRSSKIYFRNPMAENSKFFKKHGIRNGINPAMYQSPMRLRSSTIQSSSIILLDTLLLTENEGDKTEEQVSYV

[17] = biological target: 5-hydroxytryptamine receptor 1B (Homo sapiens) (UniProt P28222); conditions: Compound concentration 10.0 uM
[18] = biological target: 5-hydroxytryptamine receptor 1A (Homo sapiens) (UniProt P08908); conditions: Compound concentration 10.0 uM
5-hydroxytryptamine receptor 1A (Homo sapiens), sequence (P08908 whole entry): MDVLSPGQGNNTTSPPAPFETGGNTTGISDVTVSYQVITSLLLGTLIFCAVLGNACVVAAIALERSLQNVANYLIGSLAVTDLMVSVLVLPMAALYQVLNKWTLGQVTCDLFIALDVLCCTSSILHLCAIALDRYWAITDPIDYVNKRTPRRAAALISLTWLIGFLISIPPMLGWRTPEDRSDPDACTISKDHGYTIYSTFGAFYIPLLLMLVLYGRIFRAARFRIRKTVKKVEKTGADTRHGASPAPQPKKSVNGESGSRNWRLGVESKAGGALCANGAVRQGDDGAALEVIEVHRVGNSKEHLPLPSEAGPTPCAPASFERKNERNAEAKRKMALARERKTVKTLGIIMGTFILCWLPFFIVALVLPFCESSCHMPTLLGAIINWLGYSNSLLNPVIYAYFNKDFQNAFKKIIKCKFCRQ

[19] = biological target: 5-hydroxytryptamine receptor 7 (Homo sapiens, UniProt P34969); conditions: Compound concentration 10.0 uM
[20] = biological target: Alpha-1D adrenergic receptor (Homo sapiens) (UniProt P25100); conditions: Compound concentration 10.0 uM
[21] = biological target: Muscarinic acetylcholine receptor M4 (Homo sapiens) (UniProt P08173); conditions: Compound concentration 10.0 uM
[22] = biological target: Sodium-dependent dopamine transporter (Homo sapiens, UniProt Q01959); conditions: Compound concentration 10.0 uM
Rattus norvegicus = organism: Rattus norvegicus; conditions: Compound concentration 10.0 uM
[23] = biological target: T2, Sodium-dependent noradrenaline transporter; conditions: Compound concentration 10.0 uM
[24] = biological target: GABA-A receptor; anion channel (Rattus norvegicus) (UniProt O09028+P15431+P18506+P18508+P19969+P20236+P23574+P23576+P28471+P28473+P30191+P62813+P63079+P63138+Q91ZM7+Q9ES14); conditions: Compound concentration 10.0 uM

Histamine H1 receptor (Homo sapiens), sequence (P35367 whole entry): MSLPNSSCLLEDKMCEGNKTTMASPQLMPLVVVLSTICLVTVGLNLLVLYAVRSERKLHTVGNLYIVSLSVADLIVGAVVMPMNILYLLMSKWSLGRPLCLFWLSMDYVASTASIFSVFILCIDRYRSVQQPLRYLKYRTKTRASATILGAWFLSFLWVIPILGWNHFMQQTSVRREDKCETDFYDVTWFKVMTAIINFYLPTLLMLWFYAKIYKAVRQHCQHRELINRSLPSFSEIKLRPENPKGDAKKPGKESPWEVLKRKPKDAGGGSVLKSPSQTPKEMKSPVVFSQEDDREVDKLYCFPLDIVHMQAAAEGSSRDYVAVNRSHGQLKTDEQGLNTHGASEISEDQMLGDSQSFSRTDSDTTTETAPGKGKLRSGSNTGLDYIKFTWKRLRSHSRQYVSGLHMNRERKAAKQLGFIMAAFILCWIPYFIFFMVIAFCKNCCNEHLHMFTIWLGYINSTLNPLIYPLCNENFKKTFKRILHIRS

| inhibition [1] [%] | inhibition [2] [%] | Ki ([3]; read-out: Ki) [nM] | Ki ([3]; read-out: pKi (converted)) [nM] | inhibition [4] [%] | inhibition (Histamine H3 receptor) [%] | inhibition [5] [%] | inhibition [6] [%] | inhibition [7] [%] | Ki ([8]; read-out: Ki) [nM] | Ki ([8]; read-out: pKi (converted)) [nM] | inhibition [9] [%] | inhibition [10] [%] | inhibition [11] [%] | inhibition [12] [%] | Ki ([13]; read-out: Ki) [nM] | Ki ([13]; read-out: pKi (converted)) [nM] | inhibition [14] [%] | Ki ([15]; read-out: Ki) [nM] | Ki ([16]; read-out: Ki) [nM] | Compound | also measured |
| --- | --- | --- | --- | --- | --- | --- | --- | --- | --- | --- | --- | --- | --- | --- | --- | --- | --- | --- | --- | --- | --- |
| 34.6 | 41.6 | 414 | 407 | 98 | 86.2 | 18.6 | 6.05 | 8.02 | 3110 | 3020 | 19.5 | 94.8 | 59.8 | 53.2 | 267 | 257 | 6.46 | 475 | 291 | CN1CCN(c2ccnc(NCCc3ccccc3)n2)CC1 [TP-040n] | Ki ([15]; read-out: pKi (converted)): 427 nM; Ki ([16]; read-out: pKi (converted)): 282 nM; inhibition [17]: 45.9%; inhibition [18]: 26.7%; inhibition [19]: 92.4%; inhibition [20]: 26%; inhibition [21]: 25.9%; inhibition [22]: 98%; inhibition (Rattus norvegicus): -0.34%; inhibition [23]: 93.8%; inhibition [24]: 22.9% |
| 12.8 | 40.1 | 3430 | 3390 | 56.3 | 35.1 | 17.2 | 3.97 | 4.65 | 1940 | 1910 | 3.36 | 89.2 | 24 | 81.9 | 374 | 363 | 25.1 | 2570 | 699 | CC1CCN(c2ccnc(NCc3cn(C)cn3)n2)CC1 [TP-040] | inhibition [17]: 24.4%; inhibition [18]: 30%; inhibition [19]: 34.6%; inhibition [20]: 25.1%; inhibition [21]: 20.6%; inhibition [22]: 20.6%; inhibition (Rattus norvegicus): 17.9%; inhibition [23]: 75.8%; inhibition [24]: 67.4% |
